Like-named read-outs stand apart in the source and are kept apart here.
Key:
[1] = target: KRAS^G12C-SOS1 (Homo sapiens (Human), UniProt P01116, G12C); assay: HTRF KRAS G12C/SOS1 binding assay; details: Table 5
Method in brief: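 Compound was serially diluted five-fold over eight points, with a 2 mM DMSO stock. After anti-tag-Tb3+ and anti-tag-XL665 were added, plates were incubated 3 h at 4 °C and read by HTRF (ex 337 nm, em 620/665 nm ratio). IC50 values come from four-parameter variable-slope fits.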

[2] = target: PI3Kα (Homo sapiens (Human), UniProt P42336); assay: Inhibition of PI3Kα efficacy assay (ADP-Glo kinase assay); assay type: biochemical; details: read-out: PI3Kα inhibitory activity (IC50)
Chain of PI3Kα (P42336 whole entry): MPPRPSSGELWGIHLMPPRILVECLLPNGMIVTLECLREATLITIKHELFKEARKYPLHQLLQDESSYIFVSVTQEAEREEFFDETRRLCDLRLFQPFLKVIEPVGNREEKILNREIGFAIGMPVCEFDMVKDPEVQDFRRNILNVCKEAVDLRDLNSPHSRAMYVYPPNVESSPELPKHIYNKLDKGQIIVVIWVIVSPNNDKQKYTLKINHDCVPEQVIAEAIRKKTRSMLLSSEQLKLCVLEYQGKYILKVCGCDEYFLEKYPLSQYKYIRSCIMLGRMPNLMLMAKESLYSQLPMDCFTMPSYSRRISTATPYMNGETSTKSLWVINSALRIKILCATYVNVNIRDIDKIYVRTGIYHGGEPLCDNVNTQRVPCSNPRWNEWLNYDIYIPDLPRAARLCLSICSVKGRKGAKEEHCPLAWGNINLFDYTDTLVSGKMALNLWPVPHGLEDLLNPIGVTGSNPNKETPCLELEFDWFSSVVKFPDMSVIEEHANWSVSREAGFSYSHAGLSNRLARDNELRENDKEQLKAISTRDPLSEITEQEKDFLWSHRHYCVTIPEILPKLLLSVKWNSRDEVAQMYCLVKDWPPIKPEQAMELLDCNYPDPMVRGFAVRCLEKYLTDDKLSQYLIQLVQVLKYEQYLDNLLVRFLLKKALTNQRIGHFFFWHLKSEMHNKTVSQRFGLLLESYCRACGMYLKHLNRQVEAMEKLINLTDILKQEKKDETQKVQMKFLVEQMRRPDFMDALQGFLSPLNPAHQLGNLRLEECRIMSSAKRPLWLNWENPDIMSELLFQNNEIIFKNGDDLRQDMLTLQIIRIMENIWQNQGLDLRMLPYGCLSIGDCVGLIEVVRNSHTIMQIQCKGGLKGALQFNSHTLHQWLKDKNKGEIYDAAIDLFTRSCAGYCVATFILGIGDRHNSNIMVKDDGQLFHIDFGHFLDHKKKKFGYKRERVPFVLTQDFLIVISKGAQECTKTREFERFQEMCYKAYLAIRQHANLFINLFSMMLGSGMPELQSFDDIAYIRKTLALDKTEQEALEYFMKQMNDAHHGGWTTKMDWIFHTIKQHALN
Chain of PI3Kα (P27986 whole entry partner): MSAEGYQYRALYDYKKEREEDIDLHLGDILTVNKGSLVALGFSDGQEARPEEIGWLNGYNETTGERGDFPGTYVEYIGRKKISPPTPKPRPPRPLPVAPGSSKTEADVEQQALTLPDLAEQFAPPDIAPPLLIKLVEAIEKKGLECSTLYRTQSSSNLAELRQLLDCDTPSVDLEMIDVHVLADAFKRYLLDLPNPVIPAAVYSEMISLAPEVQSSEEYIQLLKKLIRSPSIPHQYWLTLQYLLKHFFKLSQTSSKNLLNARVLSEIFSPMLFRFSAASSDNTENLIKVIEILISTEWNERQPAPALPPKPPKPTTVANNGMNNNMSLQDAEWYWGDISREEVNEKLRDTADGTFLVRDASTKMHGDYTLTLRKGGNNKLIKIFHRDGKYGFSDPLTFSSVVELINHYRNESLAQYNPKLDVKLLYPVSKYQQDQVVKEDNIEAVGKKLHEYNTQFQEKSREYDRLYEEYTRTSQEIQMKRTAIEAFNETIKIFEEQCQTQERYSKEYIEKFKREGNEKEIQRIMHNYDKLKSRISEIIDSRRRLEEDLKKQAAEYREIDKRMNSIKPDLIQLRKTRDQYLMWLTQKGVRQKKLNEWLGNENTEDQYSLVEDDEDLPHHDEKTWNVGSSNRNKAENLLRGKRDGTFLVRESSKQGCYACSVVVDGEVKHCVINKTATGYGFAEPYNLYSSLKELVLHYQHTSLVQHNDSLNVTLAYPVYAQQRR
Method in brief: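 Eight five-fold dilutions of compound (2 mM DMSO stock) tested; kinase reaction with PI and ATP ran 60 min at RT, followed by ADP-Glo and detection reagent steps of 40 min each. Four-parameter logistic fitting gave IC50 values.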

[3] = target: PI3Kδ (Homo sapiens (Human), UniProt O00329); assay: Inhibition of PI3Kδ efficacy assay (ADP-Glo kinase assay); assay type: biochemical; details: read-out: PI3Kδ inhibitory activity (IC50)
Chain of PI3Kδ (O00329 whole entry): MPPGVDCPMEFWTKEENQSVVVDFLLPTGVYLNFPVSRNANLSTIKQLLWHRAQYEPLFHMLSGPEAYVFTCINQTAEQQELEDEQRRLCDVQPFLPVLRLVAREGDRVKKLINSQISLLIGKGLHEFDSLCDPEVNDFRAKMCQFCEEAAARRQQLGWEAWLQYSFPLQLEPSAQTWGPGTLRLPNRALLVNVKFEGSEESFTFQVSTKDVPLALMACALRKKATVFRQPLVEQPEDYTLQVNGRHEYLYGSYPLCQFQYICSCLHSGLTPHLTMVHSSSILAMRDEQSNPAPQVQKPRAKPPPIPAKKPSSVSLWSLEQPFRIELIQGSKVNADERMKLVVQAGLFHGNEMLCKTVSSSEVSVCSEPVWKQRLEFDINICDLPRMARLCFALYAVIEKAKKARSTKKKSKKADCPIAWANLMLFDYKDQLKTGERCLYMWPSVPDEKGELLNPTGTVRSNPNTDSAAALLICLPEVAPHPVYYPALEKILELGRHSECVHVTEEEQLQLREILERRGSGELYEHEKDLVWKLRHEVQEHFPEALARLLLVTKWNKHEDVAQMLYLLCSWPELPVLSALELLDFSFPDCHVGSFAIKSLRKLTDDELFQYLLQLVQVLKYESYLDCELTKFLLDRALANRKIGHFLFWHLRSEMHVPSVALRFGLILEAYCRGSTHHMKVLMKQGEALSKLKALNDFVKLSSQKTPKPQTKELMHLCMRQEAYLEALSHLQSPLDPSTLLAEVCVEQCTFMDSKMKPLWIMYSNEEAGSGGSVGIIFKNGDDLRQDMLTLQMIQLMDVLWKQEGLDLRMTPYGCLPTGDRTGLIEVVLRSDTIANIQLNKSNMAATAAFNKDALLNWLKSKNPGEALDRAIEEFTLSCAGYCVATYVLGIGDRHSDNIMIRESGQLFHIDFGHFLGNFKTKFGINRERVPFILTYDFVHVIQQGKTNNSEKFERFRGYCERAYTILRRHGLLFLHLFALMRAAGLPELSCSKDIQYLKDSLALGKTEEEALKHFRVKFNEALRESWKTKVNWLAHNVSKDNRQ
Chain of PI3Kδ (P27986 whole entry partner): as the sequence (P27986 whole entry partner) above
Method in brief: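 Luminescent ADP-Glo readout of PI3Kδ: after a 60 min RT reaction with PI/ATP substrate, ATP depletion (40 min) and ADP detection (40 min) steps followed. Compounds tested as eight five-fold serial dilutions; inhibition rates fitted to log(inhibitor) vs. response, variable slope, for IC50.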

Chain of KRAS^G12C-SOS1 (P01116-2 other isoform, or with tags, fused parts or gaps G12C): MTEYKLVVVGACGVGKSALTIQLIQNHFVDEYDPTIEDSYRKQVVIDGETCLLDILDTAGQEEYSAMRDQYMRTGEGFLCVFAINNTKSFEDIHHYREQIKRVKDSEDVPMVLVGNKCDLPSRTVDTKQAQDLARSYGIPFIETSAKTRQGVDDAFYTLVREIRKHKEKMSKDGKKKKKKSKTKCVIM

Structure (SMILES)	IC50 [1]	IC50 ([2]; Table 2)	IC50 ([3]; Table 2)	IC50 ([2]; Table 3)	IC50 ([3]; Table 3)	IC50 ([2]; Table 4)	IC50 ([3]; Table 4)
COc1ncc(-c2ccc3ncnc(N4CCC5(CC4)CN(C(=O)/C=C/C(C)=O)C5)c3c2)cc1NS(=O)(=O)c1c(F)cc(F)cc1F [Example 101, (E)-2,4,6-trifluoro-N-(2-methoxy-5-(4-(2-(4-oxopent-2-enoyl)-2,7-diazaspiro[3.5]nonan-7-yl)quinazolin-6-yl)pyridin-3-yl)benzenesulfonamide]	198 nM	9.9 nM	33.6 nM	–	–	–	–
COc1ncc(-c2ccc3ncnc(N4CCN(C(=O)/C=C/C(C)=O)CC4)c3c2)cc1NS(=O)(=O)c1c(F)cncc1F [Example 102, (E)-3,5-difluoro-N-(2-methoxy-5-(4-(4-(4-oxopent-2-enoyl)piperazin-1-yl)quinazolin-6-yl)pyridin-3-yl)pyridine-4-sulfonamide]	141 nM	1.2 nM	32.8 nM	–	–	–	–
CCOc1ncc(-c2ccc3ncnc(N4CCN(C(=O)/C=C/C(C)=O)CC4)c3c2)cc1NS(=O)(=O)c1ccc(F)cc1F [Example 109, (E)-N-(2-ethoxy-5-(4-(4-(4-oxopent-2-enoyl)piperazin-1-yl)quinazolin-6-yl)pyridin-3-yl)-2,4-difluorobenzenesulfonamide]	499 nM	3.5 nM	48.9 nM	–	–	–	–
COc1ncc(-c2ccc3ncnc(N4CCN(C(=O)/C=C/C(C)=O)CC4)c3c2)cc1NS(=O)(=O)c1ccc(C)cc1F [Example 111]	364 nM	8.8 nM	23.2 nM	–	–	–	–
COc1ncc(-c2ccc3ncnc(N4CCN(C(=O)/C=C/C(C)=O)[C@@H](CC#N)C4)c3c2)cc1NS(=O)(=O)c1c(F)cccc1F [Example 116, (S,E)-N-(5-(4-(3-(cyanomethyl)-4-(4-oxopent-2-enoyl)piperazin-1-yl)quinazolin-6-yl)-2-methoxypyridin-3-yl)-2,6-difluorobenzenesulfonamide]	1570 nM	1.8 nM	27 nM	–	–	–	–
COc1ncc(-c2ccc3ncnc(N4CCN(C(=O)/C=C/C(C)=O)CC4)c3c2)cc1NS(=O)(=O)c1c(F)cccc1C#N [Example 122, (E)-2-cyano-6-fluoro-N-(2-methoxy-5-(4-(4-(4-oxopent-2-enoyl)piperazin-1-yl)quinazolin-6-yl)pyridin-3-yl)benzenesulfonamide]	145 nM	8.1 nM	4.7 nM	–	–	–	–
COc1ncc(-c2ccc3ncnc(N4CCN(C(=O)/C=C/C(C)=O)CC4)c3c2)cc1NS(=O)(=O)c1ccc(C(F)(F)F)cc1F [Example 124, (E)-2-fluoro-N-(2-methoxy-5-(4-(4-(4-oxopent-2-enoyl)piperazin-1-yl)quinazolin-6-yl)pyridin-3-yl)-4-(trifluoromethyl)benzenesulfonamide]	730 nM	4.4 nM	61.4 nM	–	–	–	–
COc1ncc(-c2ccc3ncnc(N4CCN(C(=O)/C=C/C(C)=O)CC4)c3n2)cc1NS(=O)(=O)c1c(F)cccc1F [Example 131, (E)-2,6-difluoro-N-(2-methoxy-5-(4-(4-(4-oxopent-2-enoyl)piperazin-1-yl)pyrido[3,2-d]pyrimidin-6-yl)pyridin-3-yl)benzenesulfonamide]	200 nM	–	–	1.6 nM	13.7 nM	–	–
COc1ncc(-c2ccc3ncnc(N4C5CCC4CN(C(=O)/C=C/C(C)=O)C5)c3c2)cc1NS(=O)(=O)c1ccc(F)cc1F [Example 144, 2,4-difluoro-N-(2-methoxy-5-(4-(3-((E)-4-oxopent-2-enoyl)-3,8-diazabicyclo[3.2.1]octan-8-yl)quinazolin-6-yl)pyridin-3-yl)benzenesulfonamide]	390 nM	–	–	–	–	3.2 nM	13.4 nM
COc1ncc(-c2ccc3ncnc(N4CC5CCC(C4)N5C(=O)/C=C/C(C)=O)c3c2)cc1NS(=O)(=O)c1c(F)cccc1F [Example 145, 2,6-difluoro-N-(2-methoxy-5-(4-(8-((E)-4-oxopent-2-enoyl)-3,8-diazabicyclo[3.2.1]octan-3-yl)quinazolin-6-yl)pyridin-3-yl)benzenesulfonamide]	200 nM	–	–	–	–	0.44 nM	23.8 nM
COc1ncc(-c2ccc3ncnc(N4CCC5(CC4)CN(C(=O)/C=C/C(C)=O)C5)c3c2)cc1NS(=O)(=O)c1ccccc1F [Example 150, (E)-2-fluoro-N-(2-methoxy-5-(4-(2-(4-oxopent-2-enoyl)-2,7-diazaspiro[3.5]nonan-7-yl)quinazolin-6-yl)pyridin-3-yl)benzenesulfonamide]	236 nM	–	–	–	–	0.11 nM	10.7 nM
COc1ncc(-c2ccc3ncnc(N4CCN(C(=O)/C=C/C(C)=O)C[C@@H]4C)c3c2)cc1NS(=O)(=O)c1ccccc1F [Example 152, (S,E)-2-fluoro-N-(2-methoxy-5-(4-(2-methyl-4-(4-oxopent-2-enoyl)piperazin-1-yl)quinazolin-6-yl)pyridin-3-yl)benzenesulfonamide]	175 nM	–	–	–	–	0.28 nM	15.5 nM
COc1ncc(-c2ccc3ncnc(N4CCN(C(=O)/C=C/C(C)=O)C[C@@H]4C)c3c2)cc1NS(=O)(=O)c1ccc(F)cc1 [Example 153, (S,E)-4-fluoro-N-(2-methoxy-5-(4-(2-methyl-4-(4-oxopent-2-enoyl)piperazin-1-yl)quinazolin-6-yl)pyridin-3-yl)benzenesulfonamide]	210 nM	–	–	–	–	0.73 nM	12.7 nM
COc1ncc(-c2ccc3ncnc(N4CCN(C(=O)/C=C/C(C)=O)C[C@@H]4C)c3c2)cc1NS(=O)(=O)c1c(F)cc(F)cc1F [Example 154, (S,E)-2,4,6-trifluoro-N-(2-methoxy-5-(4-(2-methyl-4-(4-oxopent-2-enoyl)piperazin-1-yl)quinazolin-6-yl)pyridin-3-yl)benzenesulfonamide]	183 nM	–	–	–	–	0.54 nM	13.8 nM
COc1ncc(-c2ccc3ncnc(N4CC5CCC(C4)N5C(=O)/C=C/C(C)=O)c3c2)cc1NS(=O)(=O)c1c(F)cc(F)cc1F [Example 155]	462 nM	–	–	–	–	0.3 nM	53.1 nM
COc1ncc(-c2ccc3ncnc(N4CC5CCC4CN5C(=O)/C=C/C(C)=O)c3c2)cc1NS(=O)(=O)c1ccc(F)cc1F (stereo not drawn) [Example 158, (E)-2,4-difluoro-N-(2-methoxy-5-(4-(5-(4-oxopent-2-enoyl)-2,5-diazabicyclo[2.2.2]octan-2-yl)quinazolin-6-yl)pyridin-3-yl)benzenesulfonamide]	191 nM	–	–	–	–	3 nM	34.6 nM
COc1ncc(-c2ccc3ncnc(N4CCN(C(=O)/C=C/C(C)=O)CC4)c3c2)cc1NS(=O)(=O)c1sc(C)nc1C [Example 160, (E)-N-(2-methoxy-5-(4-(4-(4-oxopent-2-enoyl)piperazin-1-yl)quinazolin-6-yl)pyridin-3-yl)-2,4-dimethylthiazole-5-sulfonamide]	169 nM	–	–	–	–	2 nM	15.2 nM
COc1ncc(-c2ccc3ncnc(N4CCC5(CC4)CN(C(=O)/C=C/C(C)=O)C5)c3c2)cc1NS(=O)(=O)c1ccc(F)cc1 [Example 161, (E)-4-fluoro-N-(2-methoxy-5-(4-(2-(4-oxopent-2-enoyl)-2,7-diazaspiro[3.5]nonan-7-yl)quinazolin-6-yl)pyridin-3-yl)benzenesulfonamide]	284 nM	–	–	–	–	0.82 nM	9.9 nM
COc1ncc(-c2ccc3ncnc(N4CCN(C(=O)/C=C/C(C)=O)CC4)c3c2)cc1NS(=O)(=O)c1ncc(Cl)s1 [Example 165, (E)-5-chloro-N-(2-methoxy-5-(4-(4-(4-oxopent-2-enoyl)piperazin-1-yl)quinazolin-6-yl)pyridin-3-yl)thiazole-2-sulfonamide]	362 nM	–	–	–	–	1.2 nM	12 nM
C=C(C(C)=O)C(=O)N1CCN(c2ncnc3ccc(-c4cnc(OC)c(NS(=O)(=O)c5ccc(F)cc5F)c4)cc23)CC1 [Example 168, 2,4-difluoro-N-(2-methoxy-5-(4-(4-(2-methylene-3-oxobutanoyl)piperazin-1-yl)quinazolin-6-yl)pyridin-3-yl)benzenesulfonamide]	546 nM	–	–	–	–	6.2 nM	17.2 nM
COc1ncc(-c2ccc3ncnc(N4CCN(C(=O)/C=C/C(C)=O)CC4)c3c2)cc1NS(=O)(=O)c1ccc(F)cc1Cl [Example 169, (E)-2-chloro-4-fluoro-N-(2-methoxy-5-(4-(4-(4-oxopent-2-enoyl)piperazin-1-yl)quinazolin-6-yl)pyridin-3-yl)benzenesulfonamide]	249 nM	–	–	–	–	3.8 nM	18.9 nM
COc1ncc(-c2ccc3ncnc(N4CCC5(CC4)CN(C(=O)/C=C/C(C)=O)C5)c3c2)cc1NS(=O)(=O)c1ccc(F)cc1Cl [Example 171, (E)-2-chloro-4-fluoro-N-(2-methoxy-5-(4-(2-(4-oxopent-2-enoyl)-2,7-diazaspiro[3.5]nonan-7-yl)quinazolin-6-yl)pyridin-3-yl)benzene-sulfonamide]	441 nM	–	–	–	–	12.9 nM	40.1 nM
COc1ncc(-c2ccc3ncnc(N4CCN(C(=O)/C=C/C(C)=O)CC4)c3c2)cc1NS(=O)(=O)c1ccncc1C [Example 172, (E)-N-(2-methoxy-5-(4-(4-(4-oxopent-2-enoyl)piperazin-1-yl)quinazolin-6-yl)pyridin-3-yl)-3-methyl-pyridine-4-sulfonamide]	622 nM	–	–	–	–	4.1 nM	11.3 nM

Source: patent US20250145589A1, “PYRIDINE DERIVATIVE AND USE THEREOF” (SICHUAN HUIYU PHARMACEUTICAL CO., LTD., priority 2021, published 2025)
